Results on 34 molecules are retold here after US12150995B2, “IRAK degraders and uses thereof” (Kymera Therapeutics, Inc., priority 2020, dated 2024).

Bounds are passed on as bounds.

This assay deals with T1, IRAK4 (Homo sapiens, UniProt Q9NWZ3).
T1 construct: endogenous in cells; host or cells: OCI-LY10
T1 sequence (Q9NWZ3 1-460): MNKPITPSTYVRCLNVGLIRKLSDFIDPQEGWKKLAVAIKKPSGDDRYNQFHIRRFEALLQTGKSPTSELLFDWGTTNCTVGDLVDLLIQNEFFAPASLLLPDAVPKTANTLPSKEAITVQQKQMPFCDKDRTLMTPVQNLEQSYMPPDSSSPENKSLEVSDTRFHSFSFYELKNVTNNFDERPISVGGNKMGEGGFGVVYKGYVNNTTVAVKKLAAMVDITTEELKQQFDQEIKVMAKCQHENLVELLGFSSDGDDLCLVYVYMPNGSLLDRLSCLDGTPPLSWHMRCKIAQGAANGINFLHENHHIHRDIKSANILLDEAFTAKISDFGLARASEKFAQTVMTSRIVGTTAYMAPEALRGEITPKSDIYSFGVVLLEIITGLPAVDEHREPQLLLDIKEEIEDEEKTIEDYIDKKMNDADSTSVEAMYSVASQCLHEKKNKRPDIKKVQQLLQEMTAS
Put plainly: IRAK4 MSD Degradation in OCI-LY10. Type of assay: cell-based. The conditions noted are these: OCI-LY10 cells, Meso Scale Discovery, incubated 4 to 24 hours. Here is the method: Degradation of IRAK4 in OCI-LY10 was quantitatively measured using Meso Scale Discovery technology. OCI-LY10 cells were seeded in 96-well plates (Corning 3799) with a density of 300,000 cells per well in 100 μL fresh media. Compounds were then added to the assay plates with a final top concentration of 1 to 10 μM in a 1:3 dilution series with total of 8 doses. The assay plates were then incubated for 4 to 24 hours at 37° C. under 5% CO2. The assay plates were then centrifuged for 5 minutes and the cell pellets were treated with 100 μL/well RIPA lysis buffer (Boston BioProducts BP-115D) with proteinase inhibitors. To prepare MSD assay plates (Meso Scale Discovery Catalog number L15XA-3), the plates were coated with 2 μg/mL capture antibody (mouse Anti-IRAK4 antibody [2H9], ab119942) in PBS, at 40 μL/well. The plates were then incubated overnight at 4° C., washed 3 times with 150 μL/well TBST buffer (Cell Signaling Technology, Catalog number 9997S) and blocked with 150 μL/well blocking buffer (Meso Scale Discovery Catalog number R93BA-4). Cell lysates were then added to MSD assay plates and the plates were incubated at room temperature for 1 hour. The plates were then washed 3 times with 150 μL/well TBST buffer and […] primary detection antibody (rabbit Anti-IRAK4 antibody [Y279], from Abcam. Catalog number ab32511, 1 μg/mL). The assay plates were then incubated at room temperature for 1 hour, washed 3 times with 150 μL/well TBST buffer and 254/well secondary detection antibody, SULFO-TAG anti-rabbit antibody were added (anti rabbit antibody from Meso Scale Discovery, Catalog number R32AB-1, 1 μg/mL). The assay plates were then incubated at room temperature for 1 hour, washed 3 times with 150 μL/well TBST buffer, and 150 μL/well MSD reading buffer (Meso Scale Discovery catalog number R92TC-2) was added. The plates were then analyzed by a MSD reader (Meso Scale Discovery, Model Quick Plex SQ 120). The data was then analyzed by software Prism 7.0 from GraphPad and the dose-depended IRAK4 degradation were fit using a three-parameter logistic equation to calculate DC50.
The letter codes for IRAK4 DC50 include: A (<0.01 μM); B (0.01-0.05 μM); C (0.05-0.1 μM); D (0.1-0.2 μM); and E (>0.2 μM).

`Cn1c(=O)n(C2CCC(=O)NC2=O)c2cccc(C3CCN(C[C@H]4C[C@H](n5cc6cc(NC(=O)c7cccc(C(F)(F)F)n7)c(Cl)cc6n5)C4)CC3)c21` (stereo partly shown) [I-90] registered a DC50 of 10 to 50 nM.

Regarding `COc1cc2nn([C@H]3CC[C@H](CN(C)[C@H]4CC[C@@H](c5cccc6c5n(C)c(=O)n6C5CCC(=O)NC5=O)CC4)CC3)cc2cc1NC(=O)c1cccc(C(F)(F)F)n1` (stereo partly shown) [I-6, N-[2-[4-[[[4-[1-(2,6-dioxo-3-piperidyl)-3-methyl-2-oxo-benzimidazol-4-yl]cyclohexyl]-methyl-amino]methyl]cyclohexyl]-6-methoxy-indazol-5-yl]-6-(trifluoromethyl)pyridine-2-carboxamide], the DC50 was below 10 nM.

On to `COc1cc2nc(N3CCC(CN4CCN(c5cccc6c5n(C)c(=O)n6C5CCC(=O)NC5=O)CC4)CC3)sc2cc1NC(=O)c1cccc(C(F)(F)F)n1` (stereo not shown) [I-427], for which the DC50 is 10 to 50 nM.

Take `COc1cc2nn([C@H]3CC[C@H](CN4CCC(c5cc(F)cc6c5n(C)c(=O)n6C5CCC(=O)NC5=O)CC4)CC3)cc2cc1NC(=O)c1cccc(C(F)(F)F)n1` (stereo partly shown) [I-52]: the DC50 is below 10 nM.

With `COc1cc2nn([C@H]3CC[C@H](CN4CCC(c5cccc6c5n(C)c(=O)n6C5CCC(=O)NC5=O)CC4)CC3)cc2cc1NC(=O)c1cncc(C#N)c1` (stereo partly shown) [I-77], the DC50 was below 10 nM.

Take `COc1cc2nn([C@H]3CC[C@H](CN4CCN(c5ccc(F)c6c(N7CCC(=O)NC7=O)cncc56)CC4)CC3)cc2cc1NC(=O)c1cccc(C(F)(F)F)n1` [I-311]: the DC50 was below 10 nM.

Molecule `CC(C)Nc1c(C(=O)N[C@H]2CC[C@H](CN3CCN(c4cccc5c4n(C)c(=O)n5C4CCC(=O)NC4=O)CC3)CC2)cnc2c1Oc1cc(C#N)ccc1O2` (stereo partly shown) [I-407] registered a DC50 below 10 nM.

Take `COc1cc2nn([C@H]3CC[C@H](CN4C5CCC4CN(c4cccc6c4n(C)c(=O)n6C4CCC(=O)NC4=O)C5)CC3)cc2cc1NC(=O)c1cncc(C#N)c1` (stereo partly shown) [I-262]: the DC50 is below 10 nM.

Molecule `O=C1CCN(c2cncc3c(C4CCN(C[C@H]5CC[C@H](n6cc7cc(NC(=O)c8cccc(C(F)(F)F)n8)ncc7n6)CC5)CC4)cccc23)C(=O)N1` [I-103] gave a DC50 of 10 to 50 nM.

In turn, `COc1cc2nn([C@H]3CC[C@H](CN4CCC(c5c(C)ccc6c5n(C)c(=O)n6C5CCC(=O)NC5=O)CC4)CC3)cc2cc1NC(=O)c1cccc(C(F)(F)F)n1` (stereo partly shown) [I-39] displayed a half-maximal degradation concentration (DC50) below 10 nM.

For `CC(C)(O)c1cc2nc([C@H]3CC[C@H](C(=O)N4CCN(CCCNc5cccc6c5C(=O)N(C5CCC(=O)NC5=O)C6=O)CC4)CC3)sc2cc1NC(=O)c1cccc(C#N)n1` (stereo partly shown) [I-435], the DC50 was 10 to 50 nM.

`COc1cc2nn([C@H]3CC[C@H](CN(C)C4CCN(c5c(Cl)ccc6c5n(C)c(=O)n6C5CCC(=O)NC5=O)CC4)CC3)cc2cc1NC(=O)c1cccc(C(F)(F)F)n1` (stereo partly shown) [I-53] showed a half-maximal degradation concentration (DC50) of 10 to 50 nM.

In turn, `CC(C)Nc1cc(-n2ccc3cc(C#N)cnc32)ncc1-c1cn([C@H]2CC[C@H](CN3CCN(c4cccc5c(N6CCC(=O)NC6=O)cncc45)CC3)CC2)nn1` [I-197] displayed a DC50 below 10 nM.

On to `Cc1cc2nn([C@H]3CC[C@H](CN4CCN(c5cccc6c5n(C)c(=O)n6C5CCC(=O)NC5=O)CC4(C)C)CC3)cc2cc1NC(=O)c1cccc(C(F)(F)F)n1` (stereo partly shown) [I-305], for which the DC50 was in the range of 10 to 50 nM.

Consider `COc1ccc2c(c1N1CCN(C[C@H]3CC[C@H](NC(=O)c4cnc(-n5ccc6cc(C#N)cnc65)cc4NC(C)C)CC3)CC1)n(C)c(=O)n2C1CCC(=O)NC1=O` (stereo partly shown) [I-391], for which the DC50 was 10 to 50 nM.

In turn, `Cn1c(=O)n(C2CCC(=O)NC2=O)c2cccc(C3CCN(C[C@H]4CC[C@H](n5cc6cc(NC(=O)c7cccc(C(F)(F)F)n7)c(N7CCOCC7)cc6n5)CC4)CC3)c21` (stereo partly shown) [I-38] came in with a DC50 below 10 nM.

In turn, `Cc1ccc2c(c1C1CCN(C[C@H]3CC[C@H](n4cc5cc(NC(=O)c6cccc(C(F)(F)F)n6)c(Cl)cc5n4)CC3)CC1)n(C)c(=O)n2C1CCC(=O)NC1=O` (stereo partly shown) [I-73] registered a DC50 of 10 to 50 nM.

As for `CC(C)Nc1cc(-n2ccc3cc(C#N)cnc32)ncc1C(=O)N[C@H]1CC[C@H](CN2CCC(c3cccc4c3n(C)c(=O)n4C3CCC(=O)NC3=O)CC2)CC1` (stereo partly shown) [I-114], the DC50 is below 10 nM.

In the case of `COc1cc2nn([C@H]3CC[C@H](CN4CCN(c5cccc6c(N7CCC(=O)NC7=O)ccnc56)CC4)CC3)cc2cc1NC(=O)c1cccc(C(F)(F)F)n1` [I-382], the DC50 was below 10 nM.

Molecule `C[C@@H]1CN(c2cccc3c2n(C)c(=O)n3C2CCC(=O)NC2=O)CCN1C[C@H]1CC[C@H](n2cc3cc(NC(=O)c4cccc(C(F)(F)F)n4)ccc3n2)CC1` (stereo partly shown) [I-163] yielded a DC50 below 10 nM.

Molecule `CCc1cc2nn([C@H]3CC[C@H](CN4CCN(c5cccc6c(N7CCC(=O)NC7=O)cncc56)CC4)CC3)cc2cc1NC(=O)c1cccc(C(F)(F)F)n1` [I-377] came in with a DC50 below 10 nM.

Regarding `Cc1cccc(C(=O)Nc2cc3sc([C@H]4CC[C@H](C(=O)N5CC6(CCN(CCNc7cccc8c7C(=O)N(C7CCC(=O)NC7=O)C8=O)CC6)C5)CC4)nc3cc2C(C)(C)O)n1` (stereo partly shown) [I-468], the DC50 lay within 10 to 50 nM.

Molecule `O=C1CCN(c2cncc3cc(C4CCN(C[C@H]5CC[C@H](c6nc7ccc(NC(=O)c8cccc(C(F)(F)F)n8)cc7s6)CC5)CC4)ccc23)C(=O)N1` [I-181] yielded a DC50 above 200 nM.

Molecule `CC(C)Nc1c(C(=O)N[C@H]2CC[C@H](CN3CCN(c4cccc5c4n(C)c(=O)n5C4CCC(=O)NC4=O)CC3)CC2)cnc2sc(-c3cncs3)cc12` (stereo partly shown) [I-416] displayed a DC50 below 10 nM.

The molecule `CN(C[C@H]1CC[C@H](n2cc3cc(NC(=O)c4cccc(C(F)(F)F)n4)ncc3n2)CC1)C1CCN(c2ccc3c(N4CCC(=O)NC4=O)cncc3c2)CC1` [I-317] came in with a DC50 of 100 to 200 nM.

Regarding `COc1cc2nn(C3CCN(C[C@H]4CC[C@H](c5cccc6c5n(C)c(=O)n6C5CCC(=O)NC5=O)CC4)CC3)cc2cc1NC(=O)c1cccc(C(F)(F)F)n1` (stereo partly shown) [I-237], the DC50 was 10 to 50 nM.

On to `CC(C)(O)c1cc2nc([C@H]3CC[C@H](CN4CC5(CC(CCNc6cccc7c6C(=O)N(C6CCC(=O)NC6=O)C7=O)C5)C4)CC3)sc2cc1NC(=O)c1cncc(C#N)c1` (stereo partly shown) [I-461], for which the DC50 lay within 10 to 50 nM.

For `CC(C)Nc1c(C(=O)N[C@H]2CC[C@H](CN3CCC(c4cccc5c(N6CCC(=O)NC6=O)cncc45)CC3)CC2)cnc2c1Oc1ccc(C#N)cc1O2` [I-310], the DC50 was above 200 nM.

`CC(C)(O)c1cc2nn([C@H]3CC[C@H](CN4C[C@H]5C[C@@H]4CN5c4cccc5c(N6CCC(=O)NC6=O)cncc45)CC3)cc2cc1NC(=O)c1cccc(C(F)(F)F)n1` [I-229] showed a 50% degradation concentration (DC50) below 10 nM.

Regarding `C[C@@H]1CN(c2cccc3c(N4CCC(=O)NC4=O)cncc23)CCN1C[C@H]1CC[C@H](n2cc3cc(NC(=O)c4cccc(C(F)(F)F)n4)c(C(C)(C)O)cc3n2)CC1` [I-230], the DC50 is below 10 nM.

`COc1ccc2c(c1C1CCN(C[C@H]3CC[C@H](n4cc5cc(NC(=O)c6cccc(C#N)n6)ccc5n4)CC3)CC1)n(C)c(=O)n2C1CCC(=O)NC1=O` (stereo partly shown) [I-200] came in with a DC50 below 10 nM.

With `CN(C)c1cc2nn([C@H]3CC[C@H](CN4CCN(c5cccc6c5n(C)c(=O)n6C5CCC(=O)NC5=O)CC4)CC3)cc2cc1NC(=O)c1cccc(C(F)(F)F)n1` (stereo partly shown) [I-388], the DC50 lay in the range of 10 to 50 nM.

`Cn1c(=O)n(C2CCC(=O)NC2=O)c2cccc(N3CCN(C[C@H]4CC[C@H](n5cc6cc(NC(=O)c7cncc(C#N)c7)c(OC(F)(F)F)cc6n5)CC4)CC3)c21` (stereo partly shown) [I-160]: the DC50 was above 200 nM.

`CC(C)(O)c1cc2nc([C@H]3CC[C@H](C(=O)N4CCN(CCCNc5cccc6c5C(=O)N(C5CCC(=O)NC5=O)C6=O)CC4)CC3)sc2cc1NC(=O)c1cccc(C(F)(F)F)n1` (stereo partly shown) [I-493] registered a DC50 below 10 nM.

One may read the DC50 as the concentration at which degradation of the target reaches its halfway point. Low values mean a more potent degrader, high ones a less potent degrader.
